Each molecule was assayed on MCH receptors (assay: MCH receptor activity class (method not given)). Settings: class by percent of control at 10^-7 M or IC50.

Row | Compound | class
1 | CCN(CC)c1ccc(CNC[C@H]2CC[C@@H](Nc3nc4c(c(N(C)C)n3)CCCC4)CC2)cc1 [compound 1392] | 2 (Class 2: The value of percent of control at 10^−7 M was from 40% to 60% or the value of IC′50 was from 50 nM to 200 nM.)
2 | CN(C)c1ccc(CNC[C@H]2CC[C@@H](Nc3nc4c(c(N(C)C)n3)CCCC4)CC2)cc1 [compound 1393] | 3 (Class 3 The value of percent of control at 10^−7 M was more than 60% or the value of IC50 was more than 200 nM.)
3 | CCn1c2ccccc2c2cc(CNC[C@H]3CC[C@@H](Nc4nc5c(c(N(C)C)n4)CCCC5)CC3)ccc21 [compound 1394] | 3 (Class 3 The value of percent of control at 10^−7 M was more than 60% or the value of IC50 was more than 200 nM.)
4 | CN(C)c1nc(N[C@H]2CC[C@@H](CNCc3cc(C(F)(F)F)ccc3F)CC2)nc2c1CCCC2 [compound 1395] | 3 (Class 3 The value of percent of control at 10^−7 M was more than 60% or the value of IC50 was more than 200 nM.)
5 | CN(C)c1nc(N[C@H]2CC[C@@H](CNCc3ccc(O)cc3)CC2)nc2c1CCCC2 [compound 1396] | 3 (Class 3 The value of percent of control at 10^−7 M was more than 60% or the value of IC50 was more than 200 nM.)
6 | CN(C)c1nc(N[C@H]2CC[C@@H](CNCc3ccc(CO)o3)CC2)nc2c1CCCC2 [compound 1397] | 3 (Class 3 The value of percent of control at 10^−7 M was more than 60% or the value of IC50 was more than 200 nM.)
7 | CC(C)Oc1ccc(CNC[C@H]2CC[C@@H](Nc3nc4c(c(N(C)C)n3)CCCC4)CC2)cc1 [compound 1398] | 3 (Class 3 The value of percent of control at 10^−7 M was more than 60% or the value of IC50 was more than 200 nM.)
8 | CCc1ccc(CNC[C@H]2CC[C@@H](Nc3nc4c(c(N(C)C)n3)CCCC4)CC2)s1 [compound 1399] | 3 (Class 3 The value of percent of control at 10^−7 M was more than 60% or the value of IC50 was more than 200 nM.)
9 | CN(C)c1nc(N[C@H]2CC[C@@H](CNCC=C(c3ccccc3)c3ccccc3)CC2)nc2c1CCCC2 [compound 1400] | 1 (Class 1: The value of percent of control at 10^−7 M was less than 40% or the value of IC50 was less than 50 nM.)
10 | CCOc1cc(CNC[C@H]2CC[C@@H](Nc3nc4c(c(N(C)C)n3)CCCC4)CC2)ccc1O [compound 1401] | 2 (Class 2: The value of percent of control at 10^−7 M was from 40% to 60% or the value of IC′50 was from 50 nM to 200 nM.)
11 | CN(C)c1nc(N[C@H]2CC[C@@H](CNCc3ccc(N(C)C)c4ccccc34)CC2)nc2c1CCCC2 [compound 1402] | 2 (Class 2: The value of percent of control at 10^−7 M was from 40% to 60% or the value of IC′50 was from 50 nM to 200 nM.)
12 | COc1cc(OC)c(CNC[C@H]2CC[C@@H](Nc3nc4c(c(N(C)C)n3)CCCC4)CC2)c(OC)c1 [compound 1403] | 1 (Class 1: The value of percent of control at 10^−7 M was less than 40% or the value of IC50 was less than 50 nM.)
13 | CN(C)c1nc(N[C@H]2CC[C@@H](CNCc3cc(Cl)cc(Br)c3O)CC2)nc2c1CCCC2 [compound 1404] | 2 (Class 2: The value of percent of control at 10^−7 M was from 40% to 60% or the value of IC′50 was from 50 nM to 200 nM.)
14 | CN(C)c1nc(N[C@H]2CC[C@@H](CNCc3cccc(C#N)c3)CC2)nc2c1CCCC2 [compound 1405] | 3 (Class 3 The value of percent of control at 10^−7 M was more than 60% or the value of IC50 was more than 200 nM.)
15 | COc1ccc(F)c(CNC[C@H]2CC[C@@H](Nc3nc4c(c(N(C)C)n3)CCCC4)CC2)c1 [compound 1406] | 3 (Class 3 The value of percent of control at 10^−7 M was more than 60% or the value of IC50 was more than 200 nM.)
16 | CN(C)c1nc(N[C@H]2CC[C@@H](CNCc3ccccc3SC(F)(F)F)CC2)nc2c1CCCC2 [compound 1407] | 3 (Class 3 The value of percent of control at 10^−7 M was more than 60% or the value of IC50 was more than 200 nM.)

Row | Compound | class
17 | CCOc1ccc(Br)cc1CNC[C@H]1CC[C@@H](Nc2nc3c(c(N(C)C)n2)CCCC3)CC1 [compound 1408] | 3 (Class 3 The value of percent of control at 10^−7 M was more than 60% or the value of IC50 was more than 200 nM.)
18 | COc1ccc(CNC[C@H]2CC[C@@H](Nc3nc4c(c(N(C)C)n3)CCCC4)CC2)c(OC)c1C [compound 1409] | 3 (Class 3 The value of percent of control at 10^−7 M was more than 60% or the value of IC50 was more than 200 nM.)
19 | CN(C)c1nc(N[C@H]2CC[C@@H](CNCc3ccccc3OC(F)(F)F)CC2)nc2c1CCCC2 [compound 1410] | 3 (Class 3 The value of percent of control at 10^−7 M was more than 60% or the value of IC50 was more than 200 nM.)
20 | CCOc1ccc(OCC)c(CNC[C@H]2CC[C@@H](Nc3nc4c(c(N(C)C)n3)CCCC4)CC2)c1 [compound 1411] | 1 (Class 1: The value of percent of control at 10^−7 M was less than 40% or the value of IC50 was less than 50 nM.)
21 | CCOc1ccc(CNC[C@H]2CC[C@@H](Nc3nc4c(c(N(C)C)n3)CCCC4)CC2)c(OCC)c1 [compound 1412] | 1 (Class 1: The value of percent of control at 10^−7 M was less than 40% or the value of IC50 was less than 50 nM.)
22 | COc1c(Br)cc(Br)cc1CNC[C@H]1CC[C@@H](Nc2nc3c(c(N(C)C)n2)CCCC3)CC1 [compound 1413] | 1 (Class 1: The value of percent of control at 10^−7 M was less than 40% or the value of IC50 was less than 50 nM.)
23 | CN(C)c1nc(N[C@H]2CC[C@@H](CNCc3ccccc3OC(F)F)CC2)nc2c1CCCC2 [compound 1414] | 3 (Class 3 The value of percent of control at 10^−7 M was more than 60% or the value of IC50 was more than 200 nM.)
24 | COc1ccc(F)cc1CNC[C@H]1CC[C@@H](Nc2nc3c(c(N(C)C)n2)CCCC3)CC1 [compound 1415] | 3 (Class 3 The value of percent of control at 10^−7 M was more than 60% or the value of IC50 was more than 200 nM.)
25 | COc1cc(OC)c(OC)cc1CNC[C@H]1CC[C@@H](Nc2nc3c(c(N(C)C)n2)CCCC3)CC1 [compound 1417] | 1 (Class 1: The value of percent of control at 10^−7 M was less than 40% or the value of IC50 was less than 50 nM.)
26 | COc1cccc(CNC[C@H]2CC[C@@H](Nc3nc4c(c(N(C)C)n3)CCCC4)CC2)c1OC [compound 1418] | 3 (Class 3 The value of percent of control at 10^−7 M was more than 60% or the value of IC50 was more than 200 nM.)
27 | C=CCOc1ccccc1CNC[C@H]1CC[C@@H](Nc2nc3c(c(N(C)C)n2)CCCC3)CC1 [compound 1419] | 3 (Class 3 The value of percent of control at 10^−7 M was more than 60% or the value of IC50 was more than 200 nM.)
28 | CN(C)c1nc(N[C@H]2CC[C@@H](CNCc3csc4ccccc34)CC2)nc2c1CCCC2 [compound 1420] | 3 (Class 3 The value of percent of control at 10^−7 M was more than 60% or the value of IC50 was more than 200 nM.)
29 | CN(C)c1nc(N[C@H]2CC[C@@H](CNCc3cn(C)c4ccccc34)CC2)nc2c1CCCC2 [compound 1421] | 3 (Class 3 The value of percent of control at 10^−7 M was more than 60% or the value of IC50 was more than 200 nM.)
30 | Cc1ccc(CNC[C@H]2CC[C@@H](Nc3nc4c(c(N(C)C)n3)CCCC4)CC2)s1 [compound 1422] | 3 (Class 3 The value of percent of control at 10^−7 M was more than 60% or the value of IC50 was more than 200 nM.)
31 | Cc1cc(C)c(CNC[C@H]2CC[C@@H](Nc3nc4c(c(N(C)C)n3)CCCC4)CC2)c(C)c1 [compound 1423] | 3 (Class 3 The value of percent of control at 10^−7 M was more than 60% or the value of IC50 was more than 200 nM.)

Reference: US20050197350A1, “Novel quinoline, tetrahydroquinazoline, and pyrimidine derivatives and methods of treatment related to the use thereof” (TAISHO PHARMACEUTICAL CO., LTD., priority 2003, published 2005)
